Measurements taken from a melting point compilation (Tetko et al.; mined from patent text by program, amines drawn as free bases though some values may be those of a salt).

Q: Which melting point does the source give for CN1CCN(Cc2ccc(-c3cccc(-c4ccnc5c(C(=O)c6cccs6)cnn45)c3)cc2)CC1 here?
A: 199 to 202 °C

Q: With Cn1c(=O)[nH]c2nc3ccc(OCCCC(=O)N4CCCCC4)cc3cc21 as the compound, how does the melting point read?
A: 215 to 217 °C

Q: For Cn1cc(C(=O)O)c(=O)c2cc3cc(F)c(N4CCNC(c5ccco5)C4)c(F)c3nc21 (racemic), which melting point is on record?
A: 295 to 296 °C

Q: For O=C(O)c1ccc(NCCCCCCOc2ccc3ccccc3c2)cc1, which melting point is on record?
A: 157 to 159 °C

Q: For CCOC(=O)C=Cc1ccc(CCNS(=O)(=O)C=Cc2ccc(Cl)cc2)cc1, which melting point is on record?
A: 131 to 132 °C

Q: With COC(=O)c1ccc2c(c1)N(C(=O)c1ccc(-c3ccccc3C(F)(F)F)c(C)c1)Cc1cccn1C2 as the compound, how does the melting point read?
A: 180 to 182 °C

Q: With O=C(NCc1ccncc1)c1[nH]c2ccc(Cl)cc2c1S(=O)c1ccccc1 (centres undefined) as the compound, how does the melting point read?
A: 233 to 235 °C

Q: With CC1(C)Oc2ccc(C#N)cc2[C@@H](O)[C@@H]1Br (relative stereo) as the compound, how does the melting point read?
A: 128 °C

Q: With Cc1c(CCl)ncn1C(c1ccccc1)(c1ccccc1)c1ccccc1 as the compound, how does the melting point read?
A: 133 to 135 °C

Q: Which melting point does the source give for C[C@@H](N1CCN(c2ccc(OCC(F)(F)C(F)(F)F)cc2)C1=O)[C@@]1(c2ccc(F)cc2F)CO1 here?
A: 141 to 144 °C

Q: Which melting point does the source give for O=C1Nc2cccc(C(F)(F)F)c2C(=O)N2CCC[C@@H]12 here?
A: 176 to 178 °C

Q: For Cc1cc(=O)[nH]c(=O)n1C1OC(CO)C(O)C1O (centres undefined), which melting point is on record?
A: 175 to 177 °C

Q: Which melting point does the source give for CC(C)Cc1cc(C(=O)N2CCN(CC(C)C)CC2)ccc1OCc1ccc(F)cc1 here?
A: 77 to 78 °C

Q: Which melting point does the source give for CN(C(=O)C1CCCN(c2ccc([N+](=O)[O-])c(C=C3NC(=O)NC3=O)c2)C1)C1CCCCC1 (centres undefined) here?
A: 153 to 162 °C

Q: For CCCCCCCNC(=O)Nc1ccc(O)cc1C(=O)NCCC(c1ccccc1)c1ccccc1, which melting point is on record?
A: 161 to 162 °C

Q: Which melting point does the source give for OC(Cn1cncn1)(c1ccc(F)cc1)C1(Cl)CC1 (centres undefined) here?
A: 121 °C

Q: With N#Cc1cccc(Br)c1CBr as the compound, how does the melting point read?
A: 90 to 93 °C

Q: Which melting point does the source give for O=C(CC(O)(c1cc(Cl)cc(Cl)c1)C(F)(F)F)c1ccc(-n2ccnc2)cc1 (centres undefined) here?
A: 161 to 162 °C

Q: Which melting point does the source give for C[C@H](NC(=O)c1ccc(C(N)=NO)cc1)C(=O)N1CCC(OCC(=O)OCOC(=O)C(C)(C)C)CC1 here?
A: 126 °C

Q: Which melting point does the source give for CCOC(=O)c1cc(O)ccc1O here?
A: 81 to 82 °C

Q: Which melting point does the source give for CCCc1cc(F)c2oc(Cc3ccc(OC)cc3)c(C)c2c1OC(=O)OCC here?
A: 85 to 88 °C

Q: For CCCCC(CC)n1nnc2c(Nc3ccc(C(C)C)cc3Br)nc(C)cc21 (centres undefined), which melting point is on record?
A: 73 to 74 °C

Q: Which melting point does the source give for COc1cc(OC)c2c(=O)[nH]c(-c3ccc(OCCNC(C)C)c(-c4ccc(S(C)(=O)=O)cc4C(F)(F)F)n3)nc2c1 here?
A: 199 to 201 °C

Q: With O=C(OCc1ccccc1)N1CCC(O)(Cn2nc(-c3c(-c4ccccc4)nn4ccccc34)ccc2=O)CC1 as the compound, how does the melting point read?
A: 176 to 177 °C

Q: With CS(=O)(=O)c1ccc(-c2cnn(C3CCCC3)c(=O)c2-c2ccc(F)cc2)cc1 as the compound, how does the melting point read?
A: 191 to 193 °C

Q: Which melting point does the source give for Cc1ccc(C2(CC(=O)O)CNC(=O)C2)c(C)c1 (centres undefined) here?
A: 225 to 230 °C

Q: With Fc1ccc(SCCCN2CCN(c3ncc(F)cn3)CC2)cc1 as the compound, how does the melting point read?
A: 68 to 70 °C

Q: With CCCc1c(O)ccc2c1OC(C)(CCC(=O)O)CC2=O (centres undefined) as the compound, how does the melting point read?
A: 152 to 153 °C

Q: With Cn1cnnc1SC1=C(c2cc(Cl)ccc2O)C2C=C(C(F)(F)F)C=CC2NC1=O (centres undefined) as the compound, how does the melting point read?
A: > 310 °C

Q: For Cc1nc2ccc(NS(=O)(=O)c3cccc(Cl)c3C)cc2nc1C, which melting point is on record?
A: 225 to 226 °C

Q: For COc1ccc(Cn2nnc(-c3ccc(C(F)(F)F)cc3F)c2N)cc1, which melting point is on record?
A: 153 to 154 °C

Q: With CCSCCn1c(=N)sc2cc(C(F)(F)F)ccc21 as the compound, how does the melting point read?
A: 50 °C

Q: For CC#CC=NNC(=O)c1cc(OC)cc(Oc2cccc(C(F)(F)F)c2)n1, which melting point is on record?
A: 147 to 148 °C

Q: With CC12CCC3C(CCC4CC(=O)CC(C)(O)C43C)C1C(O)CC2=O (centres undefined) as the compound, how does the melting point read?
A: 227 to 229 °C

Q: For CC1(C)OC(=O)Nc2ccc(-c3cc(CC#N)ccc3F)cc21, which melting point is on record?
A: 184 to 187 °C

Q: For O=C1CCc2ccc(O)cc2O1, which melting point is on record?
A: 133 to 136 °C

Q: Which melting point does the source give for CS(=O)(=O)Nc1cc(C(O)CNCCCCCCOCCCc2ccc(Cl)s2)ccc1O (centres undefined) here?
A: 85 to 87 °C

Q: For CNC(=O)C(=NOC)c1ccccc1Oc1cccc(-c2ccc(Cl)cc2)c1, which melting point is on record?
A: 118 to 121 °C

Q: With COc1ccc(COc2c(OC)cc(C=C(C(=O)OC(C)C)P(=O)(OC)OC)cc2OC)cc1 as the compound, how does the melting point read?
A: 68 to 69 °C

Q: For COc1cc2c(Nc3cccc(Cl)c3F)ncnc2cc1OC1CCN(C(=O)[C@@H](O)C(C)(C)C)CC1, which melting point is on record?
A: 205 to 206 °C

Q: With CC(C)(C)OC(=O)C(C)(C)N1COC(CF)=C(c2ccccc2)C1=O as the compound, how does the melting point read?
A: 80.5 to 82.5 °C

Q: For COC(=O)CC(CNC(C)=O)c1cccc2ccc(OC)cc12 (centres undefined), which melting point is on record?
A: 94 to 95 °C

Q: For Nc1ccc(Cl)c2c(Cl)ccnc12, which melting point is on record?
A: 135 °C

Q: Which melting point does the source give for Cc1cc(Cl)ccc1OC(Cn1cncn1)C(O)C(C)(C)C (centres undefined) here?
A: 124 to 126 °C

Q: For CC(C)c1nn2ccccc2c1C(=O)C1CC1, which melting point is on record?
A: 72 °C

Q: Which melting point does the source give for CCOC(=O)c1cn(C2CC2)c2c(C)c(N3CCN(Cc4ccccc4)C(C)C3)c(F)c(C)c2c1=O (centres undefined) here?
A: 128 to 129 °C

Q: With COc1nc2cccnc2n1-c1ccc(-c2nc(-c3nccs3)cn2-c2ccc(C)nc2)cc1 as the compound, how does the melting point read?
A: 190 to 192 °C

Q: With CCOC(=O)c1cnc2c(OC)cccc2c1Nc1ccccc1 as the compound, how does the melting point read?
A: 120 to 121 °C

Q: For Cc1nc(Oc2ccccc2)c2nc(C)n(CCNC(=O)OC(C)(C)C)c2c1C, which melting point is on record?
A: 180 to 182 °C

Q: For O=C(O)c1ccc2c(c1)CCc1ccc(Br)cc1C2=O, which melting point is on record?
A: 218 to 219 °C

Q: Which melting point does the source give for CCOC(=O)C(=C1CCCN1C)c1ccc(F)cc1 here?
A: 80 °C

Q: For CNC(=O)C(Cc1ccc(OC)cc1)NC(=O)C(CC(C)C)C(S)CC(=O)NCC(=O)O (centres undefined), which melting point is on record?
A: 228 to 231 °C

Q: With Cc1nn2c(C(F)(F)F)cc(-c3ccc(C(F)(F)F)cc3)nc2c1C#N as the compound, how does the melting point read?
A: 184 °C

Q: With OC1CSC(Oc2cncc(-c3ccc(F)cc3F)c2)C(O)C1O (centres undefined) as the compound, how does the melting point read?
A: 221 °C

Q: With CN(CCCNC(=O)c1ccc(OC(F)(F)F)cc1)CCCNC(=O)c1ccc(OC(F)(F)F)cc1 as the compound, how does the melting point read?
A: 110 to 111 °C

Q: With CCOC(=O)CC(O)CCCCCNC(=O)OCc1ccccc1 (centres undefined) as the compound, how does the melting point read?
A: 47 to 50 °C

Q: Which melting point does the source give for COc1cc(OC)nc(Oc2ccccc2C=NO)n1 here?
A: 125 to 128 °C

Q: For CCOc1ccc2c(c1)n(C1CCCCC1)c(=O)n2S(=O)(=O)c1ccc(N(C)C)cc1OC, which melting point is on record?
A: 220 °C

Q: Which melting point does the source give for CNC(=O)N(O)CC#Cc1cccc(C2=N[C@H](c3ccccc3)CO2)c1 here?
A: 163 to 165 °C

Q: Which melting point does the source give for N#Cc1ccc(C=O)c(-c2ccco2)c1 here?
A: 125 °C

Q: For Cc1ccc(C(=O)c2ccc(F)cc2)s1, which melting point is on record?
A: 68 °C

Q: For C=CCOc1ccc(C(=C)C)cc1, which melting point is on record?
A: 22 to 23 °C

Q: For CC(C)(C)c1cc2c(c(C(C)(C)C)c1)OC(=O)C2c1ccc(C#N)cc1 (centres undefined), which melting point is on record?
A: 136 to 137 °C

Q: With N#Cc1cccc(-c2nc(C(N)=O)c3[nH]c(=O)n(-c4ccccc4)c3n2)c1 as the compound, how does the melting point read?
A: 328 to 330 °C

Q: For O=C(CC1CCC2(CC1)OCCO2)N1CCN(c2ccccn2)CC1, which melting point is on record?
A: 113 to 116 °C

Q: Which melting point does the source give for O=C(O)Cc1c(C(=O)c2ccc(Cl)c(Cl)c2)[nH]c2cc(Cl)ccc12 here?
A: 206 to 209 °C

Q: Which melting point does the source give for CN1CC(C#CC2CC2)(C(F)(F)F)c2cc(Cl)ccc2NC1=O (centres undefined) here?
A: 177 to 178 °C

Q: With COc1ccc2nc(SCc3nccc(OCC(F)(F)F)c3OC)[nH]c2c1 as the compound, how does the melting point read?
A: 149 to 150 °C

Q: For Cn1ncc(C(=O)N2CCC2)c1C(=O)Nc1ccn2nc(-c3cccc(F)n3)nc2c1, which melting point is on record?
A: 264 °C
